# Measured values taken from patent US11459323B2, “Monocyclic β-lactam compound for treating bacterial infection” (MEDSHINE DISCOVERY INC., priority 2018, dated 2022).
# Tests used:
# Assay in all cases: MIC on clinically isolated bacteria
# Assay type in all cases: cell-based
# [1] = tested on: Acinetobacter baumannii C357; conditions: Acinetobacter baumannii C357; read-out: Minimum Inhibitory Concentration (MIC)
# From the text: (§1) Twenty-five strains of clinically isolated Acinetobacter baumannii and twenty-seven strains of Pseudomonas aeruginosa were respectively selected and used to determine the minimum inhibitory concentration (MIC) of the compounds by micro-liquid dilution method according to the Institute of Clinical and Laboratory Standard (CLSI) requirements.
# [2] = tested on: Acinetobacter baumannii C408; conditions: Acinetobacter baumannii C408; read-out: Minimum Inhibitory Concentration (MIC)
# From the text: as §1
# [3] = tested on: Pseudomonas aeruginosa W19; conditions: read-out: MIC
# From the text: as §1
# [4] = tested on: Pseudomonas aeruginosa M4; conditions: read-out: MIC
# From the text: as §1
# [5] = tested on: Acinetobacter baumannii C241; conditions: Acinetobacter baumannii C241; read-out: Minimum Inhibitory Concentration (MIC)
# From the text: as §1
# [6] = tested on: Acinetobacter baumannii C312; conditions: Acinetobacter baumannii C312; read-out: Minimum Inhibitory Concentration (MIC)
# From the text: as §1
# [7] = tested on: Pseudomonas aeruginosa W23; conditions: read-out: MIC
# From the text: as §1
# [8] = tested on: Acinetobacter baumannii C402; conditions: Acinetobacter baumannii C402; read-out: Minimum Inhibitory Concentration (MIC)
# From the text: as §1
# [9] = tested on: Acinetobacter baumannii C313; conditions: Acinetobacter baumannii C313; read-out: Minimum Inhibitory Concentration (MIC)
# From the text: as §1
# [10] = tested on: Acinetobacter baumannii C401; conditions: Acinetobacter baumannii C401; read-out: Minimum Inhibitory Concentration (MIC)
# From the text: as §1
# [11] = tested on: Pseudomonas aeruginosa W6; conditions: read-out: MIC
# From the text: as §1
# [12] = tested on: Acinetobacter baumannii C427; conditions: Acinetobacter baumannii C427; read-out: Minimum Inhibitory Concentration (MIC)
# From the text: as §1
# [13] = tested on: Pseudomonas aeruginosa W4; conditions: read-out: MIC
# From the text: as §1
# [14] = tested on: Acinetobacter baumannii C319; conditions: Acinetobacter baumannii C319; read-out: Minimum Inhibitory Concentration (MIC)
# From the text: as §1
# [15] = tested on: Pseudomonas aeruginosa W32; conditions: read-out: MIC
# From the text: as §1
# [16] = tested on: Acinetobacter baumannii C330; conditions: Acinetobacter baumannii C330; read-out: Minimum Inhibitory Concentration (MIC)
# From the text: as §1
# [17] = tested on: Pseudomonas aeruginosa W13; conditions: read-out: MIC
# From the text: as §1
# [18] = tested on: Pseudomonas aeruginosa W20; conditions: read-out: MIC
# From the text: as §1
# [19] = tested on: Acinetobacter baumannii C328; conditions: Acinetobacter baumannii C328; read-out: Minimum Inhibitory Concentration (MIC)
# From the text: as §1
# [20] = tested on: Pseudomonas aeruginosa C754; conditions: read-out: MIC
# From the text: as §1
# [21] = tested on: Pseudomonas aeruginosa W9; conditions: read-out: MIC
# From the text: as §1
# [22] = tested on: Pseudomonas aeruginosa C755; conditions: read-out: MIC
# From the text: as §1
# [23] = tested on: Acinetobacter baumannii C251; conditions: Acinetobacter baumannii C251; read-out: Minimum Inhibitory Concentration (MIC)
# From the text: as §1
# [24] = tested on: Acinetobacter baumannii C332; conditions: Acinetobacter baumannii C332; read-out: Minimum Inhibitory Concentration (MIC)
# From the text: as §1
# [25] = tested on: Pseudomonas aeruginosa W1; conditions: read-out: MIC
# From the text: as §1
# [26] = tested on: Acinetobacter baumannii C395; conditions: Acinetobacter baumannii C395; read-out: Minimum Inhibitory Concentration (MIC)
# From the text: as §1
# [27] = tested on: Acinetobacter baumannii C390; conditions: Acinetobacter baumannii C390; read-out: Minimum Inhibitory Concentration (MIC)
# From the text: as §1
# Aeruginosa ATCC27853 = conditions: Pseudomonas aeruginosa; Aeruginosa ATCC27853; read-out: MIC
# From the text: as §1
# [28] = tested on: Pseudomonas aeruginosa C761; conditions: read-out: MIC
# From the text: as §1
# [29] = tested on: Pseudomonas aeruginosa W47; conditions: read-out: MIC
# From the text: as §1
# [30] = tested on: Acinetobacter baumannii C315; conditions: Acinetobacter baumannii C315; read-out: Minimum Inhibitory Concentration (MIC)
# From the text: as §1
# [31] = tested on: Pseudomonas aeruginosa W27; conditions: read-out: MIC
# From the text: as §1
# [32] = tested on: Pseudomonas aeruginosa M1; conditions: read-out: MIC
# From the text: as §1
# [33] = tested on: Acinetobacter baumannii C283; conditions: Acinetobacter baumannii C283; read-out: Minimum Inhibitory Concentration (MIC)
# From the text: as §1
# [34] = tested on: Pseudomonas aeruginosa W28; conditions: read-out: MIC
# From the text: as §1
# [35] = tested on: Pseudomonas aeruginosa W46; conditions: read-out: MIC
# From the text: as §1
# [36] = tested on: Pseudomonas aeruginosa C762; conditions: read-out: MIC
# From the text: as §1
# [37] = tested on: Acinetobacter baumannii C279; conditions: Acinetobacter baumannii C279; read-out: Minimum Inhibitory Concentration (MIC)
# From the text: as §1
# [38] = tested on: Pseudomonas aeruginosa C763; conditions: read-out: MIC
# From the text: as §1
# [39] = tested on: Acinetobacter baumannii C181; conditions: Acinetobacter baumannii C181; read-out: Minimum Inhibitory Concentration (MIC)
# From the text: as §1
# [40] = tested on: Pseudomonas aeruginosa W21; conditions: read-out: MIC
# From the text: as §1
smiles,measurement,setting,value
CC1(C)[C@H](NC(=O)/C(=N\O[C@@H](COc2ccc3c(c2)CN(C(=N)N[C@@H]2CCCNC2)C3)C(=O)O)c2csc(N)n2)C(=O)N1OS(=O)(=O)O [Compound 41],MIC,[1],2 µg/mL
same,MIC,[2],2 µg/mL
same,MIC,[3],1 µg/mL
same,MIC,[4],0.5 µg/mL
same,MIC,[5],4 µg/mL
same,MIC,[6],2 µg/mL
same,MIC,[7],0.5 µg/mL
same,MIC,[8],2 µg/mL
same,MIC,[9],2 µg/mL
same,MIC,[10],1 µg/mL
same,MIC,[11],4 µg/mL
same,MIC,[12],4 µg/mL
same,MIC,[13],0.5 µg/mL
same,MIC,[14],2 µg/mL
same,MIC,[15],4 µg/mL
same,MIC,[16],2 µg/mL
same,MIC,[17],0.5 µg/mL
same,MIC,[18],4 µg/mL
same,MIC,[19],2 µg/mL
same,MIC,[20],0.5 µg/mL
same,MIC,[21],4 µg/mL
same,MIC,[22],0.5 µg/mL
same,MIC,[23],8 µg/mL
same,MIC,[24],2 µg/mL
same,MIC,[25],2 µg/mL
same,MIC,[26],2 µg/mL
same,MIC,[27],2 µg/mL
same,MIC,Aeruginosa ATCC27853,0.5 µg/mL
same,MIC,[28],1 µg/mL
same,MIC,[29],2 µg/mL
same,MIC,[30],2 µg/mL
same,MIC,[31],4 µg/mL
same,MIC,[32],1 µg/mL
same,MIC,[33],2 µg/mL
same,MIC,[34],4 µg/mL
same,MIC,[35],2 µg/mL
same,MIC,[36],8 µg/mL
same,MIC,[37],2 µg/mL
same,MIC,[38],4 µg/mL
same,MIC,[39],4 µg/mL
same,MIC,[40],0.5 µg/mL
CC1(C)[C@H](NC(=O)/C(=N\O[C@@H](COc2ccc3c(c2)CN(C(=N)NOCCN)C3)C(=O)O)c2csc(N)n2)C(=O)N1OS(=O)(=O)O [Compound 43],MIC,[1],8 µg/mL
same,MIC,[2],8 µg/mL
same,MIC,[3],4 µg/mL
same,MIC,[4],0.25 µg/mL
same,MIC,[5],> 16 µg/mL
same,MIC,[6],8 µg/mL
same,MIC,[7],1 µg/mL
same,MIC,[8],8 µg/mL
same,MIC,[9],8 µg/mL
same,MIC,[10],8 µg/mL
same,MIC,[11],8 µg/mL
same,MIC,[12],16 µg/mL
same,MIC,[13],0.5 µg/mL
same,MIC,[14],8 µg/mL
same,MIC,[15],8 µg/mL
same,MIC,[16],8 µg/mL
same,MIC,[17],1 µg/mL
same,MIC,[18],8 µg/mL
same,MIC,[19],8 µg/mL
same,MIC,[20],1 µg/mL
same,MIC,[21],8 µg/mL
same,MIC,[22],1 µg/mL
same,MIC,[23],8 µg/mL
same,MIC,[24],8 µg/mL
same,MIC,[25],8 µg/mL
same,MIC,[26],8 µg/mL
same,MIC,[27],8 µg/mL
same,MIC,Aeruginosa ATCC27853,1 µg/mL
same,MIC,[28],2 µg/mL
same,MIC,[29],8 µg/mL
same,MIC,[30],8 µg/mL
same,MIC,[31],8 µg/mL
same,MIC,[32],1 µg/mL
same,MIC,[33],8 µg/mL
same,MIC,[34],8 µg/mL
same,MIC,[35],4 µg/mL
same,MIC,[36],16 µg/mL
same,MIC,[37],8 µg/mL
same,MIC,[38],8 µg/mL
same,MIC,[39],> 16 µg/mL
same,MIC,[40],1 µg/mL
"C[C@@H](O)[C@H]1C(=O)N2C(C(=O)O)=C(S[C@@H]3CN[C@H](C(=O)N(C)C)C3)[C@H](C)[C@H]12 [Meropenem, reference compound]",MIC,[1],64 µg/mL
same,MIC,[2],128 µg/mL
same,MIC,[3],1 µg/mL
same,MIC,[4],0.5 µg/mL
same,MIC,[5],64 µg/mL
same,MIC,[6],64 µg/mL
same,MIC,[7],16 µg/mL
same,MIC,[8],64 µg/mL
same,MIC,[9],64 µg/mL
same,MIC,[10],128 µg/mL
same,MIC,[11],32 µg/mL
same,MIC,[12],64 µg/mL
same,MIC,[13],2 µg/mL
same,MIC,[14],64 µg/mL
same,MIC,[15],4 µg/mL
same,MIC,[16],64 µg/mL
same,MIC,[17],16 µg/mL
same,MIC,[18],8 µg/mL
same,MIC,[20],< 0.25 µg/mL
same,MIC,[21],16 µg/mL
same,MIC,[22],< 0.25 µg/mL
same,MIC,[23],64 µg/mL
same,MIC,[24],64 µg/mL
same,MIC,[25],4 µg/mL
same,MIC,[27],64 µg/mL
same,MIC,Aeruginosa ATCC27853,< 0.25 µg/mL
same,MIC,[28],< 0.25 µg/mL
same,MIC,[29],4 µg/mL
same,MIC,[30],64 µg/mL
same,MIC,[31],32 µg/mL
same,MIC,[32],4 µg/mL
same,MIC,[33],64 µg/mL
same,MIC,[34],32 µg/mL
same,MIC,[35],2 µg/mL
same,MIC,[36],32 µg/mL
same,MIC,[37],64 µg/mL
same,MIC,[38],32 µg/mL
same,MIC,[39],128 µg/mL
same,MIC,[40],16 µg/mL
